Measured values reported in patent US7795290B2 (Genentech, Inc., priority 2004, dated 2010).

How the values were obtained:
Experiment in all cases: HTS ATP-utilizing enzyme assay, off-chip mobility-shift (Caliper HTS 250)
Type in all cases: biochemical
Conditions in all cases: kinase named = inhibitory activity/selectivity; test compound 10 μM; active = greater than three-sigma from mean
GSK-3-α = GSK-3-α (Homo sapiens, UniProt P49840)
Description: (§1) The following procedures describe the reagent and plate preparation for a HTS of an ATP-utilizing enzyme, such as a protein kinase, run in an off-chip mobility-shift assay format. The following provides an HTS protocol for running a protein kinase HTS screen on a Caliper HTS 250 microfluidics system. The following parameters are dependent on the protein kinase used and can be determined by one skilled in the art as part of a typical assay development process. For example, the peptide substrate used can be identified from the current literature, by screening a peptide library of potential protein kinase substrates, or by other applicable means accepted in the field.
(§2) Assays to determine the kinase inhibitory activity of chemical entities of the present disclosure were performed using a Caliper HTS 250 microfluidics device, Greiner U-bottom assay plates, a Multidrop for transfer of reagents, and Biomek FX (AMNCBM03) software. Initially, 2.4 μL of a 1 mM solution of a test compound in 100% DMSO was added to a well of the Greiner U-bottom plate. A single Greiner U-bottom plate having 24×16 wells could include multiple test compounds. Next, 40 μL of 1.06× Assay Buffer was added to each well of the assay plate. Using the Biomek FX, 10 μL of 0.5 M EDTA was added by the span-8 to wells, indicated as 100% Control and 2.4 μL of 100% DMSO was added by the span-8 to wells, indicated as 0% Control. Using the Multidrop, 10 μL of 2.5× Enzyme Buffer, followed by 10 μL of 2.5× Substrate Buffer was added to each well of the assay plate. The total reaction volume in each well was 25 μL, and the concentration of the test compound was 10 μM. The assay plate was incubated for 2.5 hrs at 20° C. to 22° C. After the incubation period, using the Multidrop, 45 μL of 1.55× Termination Buffer was added to each well of the assay plate to stop the reaction. The inhibition of the ATP-utilizing enzyme, such as a particular protein kinase, was determined by measuring the ratio of the peptide substrate to phosphorylated product for each well of the assay plate using the Caliper HTS 250 system.
(§3) The use of three-sigma statistical limits represents a conservative method for declaring potential hits among targets. The three-sigma activity, as well as the mean population activity, can be different for each target enzyme. This method has an expected false positive rate, from an in-control measurement process, of […].
(§4) Each chemical entity listed in Table 2 was tested for protein kinase inhibitory activity according to the biological assays and definitions of protein kinase inhibitory activity as described herein. For each exemplary compound listed in Table 2, the inhibitory activity for at least one protein kinase according to the biological assays and definitions of protein kinase inhibitory activity as described herein is indicated.

AURORA-A = target: T1, AURORA-A (Homo sapiens, UniProt O14965)
T1 sequence (O14965 1-403): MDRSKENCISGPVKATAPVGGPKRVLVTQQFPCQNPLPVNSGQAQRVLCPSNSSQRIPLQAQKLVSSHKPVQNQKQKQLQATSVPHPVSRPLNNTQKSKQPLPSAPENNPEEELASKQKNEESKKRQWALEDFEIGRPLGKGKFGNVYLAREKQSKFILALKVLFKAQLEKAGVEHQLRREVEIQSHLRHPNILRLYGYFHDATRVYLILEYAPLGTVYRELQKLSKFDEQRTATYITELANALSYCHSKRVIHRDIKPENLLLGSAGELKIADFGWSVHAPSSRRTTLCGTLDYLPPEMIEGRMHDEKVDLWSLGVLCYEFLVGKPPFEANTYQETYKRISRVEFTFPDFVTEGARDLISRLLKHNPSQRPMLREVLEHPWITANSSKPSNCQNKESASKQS
Description: as §1, §2, §3, §4

DYRK2 = target: T2, DYRK2 (Homo sapiens, UniProt Q92630)
T2 sequence (Q92630 1-601): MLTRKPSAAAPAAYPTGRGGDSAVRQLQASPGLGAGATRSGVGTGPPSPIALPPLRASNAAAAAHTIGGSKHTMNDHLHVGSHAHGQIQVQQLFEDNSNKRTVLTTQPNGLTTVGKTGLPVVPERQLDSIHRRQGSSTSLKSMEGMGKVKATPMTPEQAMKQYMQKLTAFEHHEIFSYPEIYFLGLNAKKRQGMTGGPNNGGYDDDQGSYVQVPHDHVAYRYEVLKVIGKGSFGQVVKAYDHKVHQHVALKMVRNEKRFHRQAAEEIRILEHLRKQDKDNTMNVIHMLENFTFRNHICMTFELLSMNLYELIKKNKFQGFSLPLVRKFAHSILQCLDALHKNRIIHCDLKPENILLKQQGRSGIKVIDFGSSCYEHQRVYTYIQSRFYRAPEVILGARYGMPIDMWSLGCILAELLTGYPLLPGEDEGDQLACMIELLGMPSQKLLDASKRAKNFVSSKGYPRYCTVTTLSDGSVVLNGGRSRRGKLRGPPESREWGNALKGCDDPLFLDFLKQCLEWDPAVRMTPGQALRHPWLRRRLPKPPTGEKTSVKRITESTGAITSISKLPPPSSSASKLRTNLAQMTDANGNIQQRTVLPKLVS
Description: as §1, §2, §3, §4

KIT = KIT (Homo sapiens, UniProt P10721)
Description: as §1, §2, §3, §4

AKT1 = target: T3, AKT1 (Homo sapiens, UniProt P31749)
T3 construct: purchased Upstate 14-276
Method in brief: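 AKT1 activity was measured by off-chip mobility shift (Caliper HTS 250) as the ratio of peptide substrate to phosphorylated product. Test compound was at 10 μM, with 2.5 h incubation at 20–22° C. EDTA wells served as 100% control and DMSO wells as 0%. Hits were called at three-sigma limits.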

ZAP70 = target: T4, ZAP70 (Homo sapiens, UniProt P43403)
T4 sequence (P43403 1-619): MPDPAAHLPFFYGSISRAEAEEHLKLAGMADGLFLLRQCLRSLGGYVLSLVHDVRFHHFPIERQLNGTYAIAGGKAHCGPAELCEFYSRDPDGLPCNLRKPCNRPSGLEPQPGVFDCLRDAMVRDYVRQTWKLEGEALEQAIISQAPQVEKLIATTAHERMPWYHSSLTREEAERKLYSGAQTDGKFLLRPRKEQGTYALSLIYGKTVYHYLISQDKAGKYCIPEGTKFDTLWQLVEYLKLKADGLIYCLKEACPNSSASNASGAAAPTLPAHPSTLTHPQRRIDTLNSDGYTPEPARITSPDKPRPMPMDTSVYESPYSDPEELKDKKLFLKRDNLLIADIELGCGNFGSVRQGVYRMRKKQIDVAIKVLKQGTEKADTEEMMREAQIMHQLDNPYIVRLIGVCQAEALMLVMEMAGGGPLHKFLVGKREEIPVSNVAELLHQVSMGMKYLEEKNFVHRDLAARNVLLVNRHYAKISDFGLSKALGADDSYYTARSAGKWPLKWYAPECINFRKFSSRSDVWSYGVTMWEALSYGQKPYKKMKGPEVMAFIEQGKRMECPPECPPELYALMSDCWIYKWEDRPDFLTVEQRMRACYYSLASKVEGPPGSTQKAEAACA
Description: as §1, §2, §3, §4

CHEK2 = CHEK2 (Homo sapiens, UniProt O96017)
Description: as §1, §2, §3, §4

Sequence of KIT (P10721 26-976): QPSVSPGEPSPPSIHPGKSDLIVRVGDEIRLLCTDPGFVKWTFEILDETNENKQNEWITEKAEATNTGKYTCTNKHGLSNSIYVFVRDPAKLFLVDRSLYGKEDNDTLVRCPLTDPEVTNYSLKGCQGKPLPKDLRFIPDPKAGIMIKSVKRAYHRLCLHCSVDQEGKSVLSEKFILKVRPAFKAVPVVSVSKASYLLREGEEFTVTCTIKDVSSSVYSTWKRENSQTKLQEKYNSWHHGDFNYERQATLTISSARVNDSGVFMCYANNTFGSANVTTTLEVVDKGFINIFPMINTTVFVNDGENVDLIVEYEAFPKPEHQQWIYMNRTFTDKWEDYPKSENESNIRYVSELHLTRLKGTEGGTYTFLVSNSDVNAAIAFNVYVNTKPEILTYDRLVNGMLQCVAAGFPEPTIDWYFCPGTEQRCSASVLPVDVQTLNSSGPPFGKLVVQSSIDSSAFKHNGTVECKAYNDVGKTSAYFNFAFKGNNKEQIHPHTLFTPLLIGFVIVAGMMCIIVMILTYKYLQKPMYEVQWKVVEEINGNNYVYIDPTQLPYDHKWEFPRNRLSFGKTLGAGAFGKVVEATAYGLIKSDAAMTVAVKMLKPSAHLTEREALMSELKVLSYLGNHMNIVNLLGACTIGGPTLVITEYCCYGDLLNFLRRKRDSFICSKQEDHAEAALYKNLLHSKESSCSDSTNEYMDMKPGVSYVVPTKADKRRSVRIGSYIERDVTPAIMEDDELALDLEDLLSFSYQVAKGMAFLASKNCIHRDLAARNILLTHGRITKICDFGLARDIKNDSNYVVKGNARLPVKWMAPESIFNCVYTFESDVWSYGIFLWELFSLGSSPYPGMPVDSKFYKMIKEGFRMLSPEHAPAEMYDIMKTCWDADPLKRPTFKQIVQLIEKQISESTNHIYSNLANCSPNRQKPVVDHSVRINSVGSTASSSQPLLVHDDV
T3 sequence (P31749 whole entry): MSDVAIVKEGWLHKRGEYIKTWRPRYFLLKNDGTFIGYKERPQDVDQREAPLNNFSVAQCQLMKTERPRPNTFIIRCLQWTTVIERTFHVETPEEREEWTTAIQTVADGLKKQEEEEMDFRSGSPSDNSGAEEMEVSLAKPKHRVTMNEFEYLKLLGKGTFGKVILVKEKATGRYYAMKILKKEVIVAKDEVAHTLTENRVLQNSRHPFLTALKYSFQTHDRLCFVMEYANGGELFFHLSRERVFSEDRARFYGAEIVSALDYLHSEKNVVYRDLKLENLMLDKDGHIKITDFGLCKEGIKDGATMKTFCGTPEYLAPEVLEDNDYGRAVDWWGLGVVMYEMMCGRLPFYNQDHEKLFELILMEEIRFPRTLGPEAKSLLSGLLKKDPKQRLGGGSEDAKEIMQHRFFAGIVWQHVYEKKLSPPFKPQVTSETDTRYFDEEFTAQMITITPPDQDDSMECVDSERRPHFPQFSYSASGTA
Sequence of GSK-3-α (P49840 whole entry): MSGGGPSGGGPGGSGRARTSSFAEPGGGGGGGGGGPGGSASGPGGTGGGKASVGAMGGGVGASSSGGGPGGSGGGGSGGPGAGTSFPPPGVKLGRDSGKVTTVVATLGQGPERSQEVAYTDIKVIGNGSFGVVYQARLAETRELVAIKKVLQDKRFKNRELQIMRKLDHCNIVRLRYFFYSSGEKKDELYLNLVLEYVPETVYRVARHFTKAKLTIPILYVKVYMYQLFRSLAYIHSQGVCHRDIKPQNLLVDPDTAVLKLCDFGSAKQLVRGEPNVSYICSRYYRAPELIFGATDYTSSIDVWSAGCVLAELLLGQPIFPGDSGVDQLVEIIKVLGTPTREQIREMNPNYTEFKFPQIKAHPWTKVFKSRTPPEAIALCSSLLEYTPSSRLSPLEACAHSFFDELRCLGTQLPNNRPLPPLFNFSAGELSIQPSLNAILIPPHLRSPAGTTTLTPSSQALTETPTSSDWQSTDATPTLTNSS
Sequence of CHEK2 (O96017 whole entry): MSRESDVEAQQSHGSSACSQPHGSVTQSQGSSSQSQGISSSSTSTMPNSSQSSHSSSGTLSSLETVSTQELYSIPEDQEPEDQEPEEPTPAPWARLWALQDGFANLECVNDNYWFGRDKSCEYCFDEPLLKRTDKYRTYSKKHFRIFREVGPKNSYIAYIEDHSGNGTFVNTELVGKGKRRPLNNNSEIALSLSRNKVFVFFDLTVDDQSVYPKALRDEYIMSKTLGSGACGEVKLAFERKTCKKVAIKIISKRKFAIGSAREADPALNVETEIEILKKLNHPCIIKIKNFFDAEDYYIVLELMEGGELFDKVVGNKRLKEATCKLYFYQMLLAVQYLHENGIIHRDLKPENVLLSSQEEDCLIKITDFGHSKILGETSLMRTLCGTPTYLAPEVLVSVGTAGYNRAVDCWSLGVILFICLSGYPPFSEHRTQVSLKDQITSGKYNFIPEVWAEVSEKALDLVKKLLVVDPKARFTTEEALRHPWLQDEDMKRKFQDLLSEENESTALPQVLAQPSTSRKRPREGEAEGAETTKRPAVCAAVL

SMILES	Activity (GSK-3-α)	Activity (KIT)	Activity (AKT1)	also measured
COc1ccc(OC)c(-c2csc(N(CCc3ccc(OC)c(OC)c3)C(=O)CCC(=O)O)n2)c1 [4-((3,4-dimethoxyphenethyl)(4-(2,5-dimethoxyphenyl)thiazol-2-yl)amino)-4-oxobutanoic acid]	GSK-3-α			
COc1ccc(OC)c(-c2csc(N(Cc3ccccc3)C(=O)CCC(=O)O)n2)c1 [4-(benzyl(4-(2,5-dimethoxyphenyl)thiazol-2-yl)amino)-4-oxobutanoic acid]				Activity (AURORA-A): AURORA-A
COc1ccc(-c2csc(N(CC(C)C)C(=O)CCC(=O)O)n2)cc1 [4-(isobutyl(4-(4-methoxyphenyl)thiazol-2-yl)amino)-4-oxobutanoic acid]				Activity (AURORA-A): AURORA-A; Activity (DYRK2): DYRK2
O=C(c1cccs1)N(CCCN1CCOCC1)c1nc(-c2ccncc2)cs1 [N-(3-morpholinopropyl)-N-(4-(pyridin-4-yl)thiazol-2-yl)thiophene-2-carboxamide]		KIT	AKT1	
CC(=O)N(CCCN1CCOCC1)c1nc(-c2ccccc2)cs1 [N-(3-morpholinopropyl)-N-(4-phenylthiazol-2-yl)acetamide]	GSK-3-α			
N#Cc1cccc(-c2csc(N(CCCN3CCOCC3)C(=O)c3cccs3)n2)c1 [N-(4-(3-cyanophenyl)thiazol-2-yl)-N-(3-morpholinopropyl)thiophene-2-carboxamide]	GSK-3-α	KIT	AKT1	
COc1ccc(-c2csc(N(CCCN3CCOCC3)C(=O)c3c(C)noc3C)n2)cc1 [N-(4-(4-methoxyphenyl)thiazol-2-yl)-3,5-dimethyl-N-(3-morpholinopropyl)isoxazole-4-carboxamide]		KIT		Activity (ZAP70): ZAP70
COc1ccc(-c2csc(N(CCCN3CCOCC3)C(=O)c3ccc(SC)s3)n2)cc1 [N-(4-(4-methoxyphenyl)thiazol-2-yl)-5-(methylthio)-N-(3-morpholinopropyl)thiophene-2-carboxamide]		KIT		Activity (ZAP70): ZAP70
COc1ccc(-c2csc(N(CCCN3CCN(C)CC3)C(=O)c3ccccc3)n2)cc1 [N-(4-(4-methoxyphenyl)thiazol-2-yl)-N-(3-(4-methylpiperazin-1-yl)propyl)benzamide]			AKT1	Activity (CHEK2): CHEK2

Second part, led by results:

Activity (GSK-3-α)	Activity (KIT)	Activity (AKT1)	SMILES	also measured
GSK-3-α			COc1ccc(OC)c(-c2csc(N(Cc3ccco3)C(=O)CCC(=O)O)n2)c1 [4-((4-(2,5-dimethoxyphenyl)thiazol-2-yl)(furan-2-ylmethyl)amino)-4-oxobutanoic acid]	Activity (AURORA-A): AURORA-A
GSK-3-α			CCCCN(C(=O)CCC(=O)O)c1nc(-c2cc(OC)ccc2OC)cs1 [4-(butyl(4-(2,5-dimethoxyphenyl)thiazol-2-yl)amino)-4-oxobutanoic acid]	Activity (AURORA-A): AURORA-A
GSK-3-α			COc1ccc(OC)c(-c2csc(N(CCCN(C)C)C(C)=O)n2)c1 [N-(4-(2,5-dimethoxyphenyl)thiazol-2-yl)-N-(3-(dimethylamino)propyl)acetamide]	
	KIT	AKT1	O=C(c1cccs1)N(CCCN1CCOCC1)c1nc(-c2ccnc(Cl)c2)cs1 [N-(4-(2-chloropyridin-4-yl)thiazol-2-yl)-N-(3-morpholinopropyl)thiophene-2-carboxamide]	
	KIT	AKT1	O=C(c1cccs1)N(CCCN1CCOCC1)c1nc(-c2ccc3c(c2)OCCCO3)cs1 [N-(4-(3,4-dihydro-2H-benzo[b][1,4]dioxepin-7-yl)thiazol-2-yl)-N-(3-morpholinopropyl)thiophene-2-carboxamide]	
	KIT	AKT1	COc1ccc(-c2csc(N(CCCN3CCOCC3)C(=O)c3ccc(C)o3)n2)cc1 [N-(4-(4-methoxyphenyl)thiazol-2-yl)-5-methyl-N-(3-morpholinopropyl)furan-2-carboxamide]	
GSK-3-α			COc1ccc(-c2csc(N(CCCN3CCOCC3)C(=O)COc3ccccc3)n2)cc1 [N-(4-(4-methoxyphenyl)thiazol-2-yl)-N-(3-morpholinopropyl)-2-phenoxyacetamide]	Activity (DYRK2): DYRK2
		AKT1	COc1ccc(-c2csc(N(CCCN3CCOCC3)C(=O)c3ccno3)n2)cc1 [N-(4-(4-methoxyphenyl)thiazol-2-yl)-N-(3-morpholinopropyl)isoxazole-5-carboxamide]	Activity (AURORA-A): AURORA-A
